Laboratory results: US20150004620A1, “METHOD OR DEVICE FOR IDENTIFYING INHIBITOR OF EPITHELIAL MESENCHYMAL TRANSITION” (Agency for Science, Technology and Research, priority 2011, published 2015)
Where two headings read alike, the source gives them in different places.

Experiments:
Type in all cases: cell-based
[1] = tested on: IGF-1-induced EMT in NBT-II cells; assay: EMT spot migration assay, IGF-1-induced; settings: IGF-1-induced EMT (150 ng/ml IGF-1), CDR dose response from 6.67 μM, read-out: Cell Dispersion IC 50, IGF-1
Method: (§1) NBT-II cells were stably transfected with mcherry-fluorescent H2B and maintained in DMEM supplemented with 10% fetal bovine serum (FBS, Thermo Scientific), 1 μg/ml puromycin (Sigma) and 100 units/ml penicillin-streptomycin (1× pen-strep, Invitrogen). Cells were grown to 80% confluency in tissue culture flasks prior to plating. Cells were trypsinized and concentrated to a density of 5×10^6 cell/ml in CO2-independent medium (Invitrogen) supplemented with 10% FBS. The cell suspension was then evenly dispersed into the wells of two columns of a 96-well V-bottom plate. Using a robotic liquid-handling station (Bravo, Agilent Technologies), 0.5 μl of cell suspension was transferred from the two columns of the cell suspension-loaded plate and deposited into the center of the wells of two columns of a 96-well clear bottom, black assay plate (Corning). This process was repeated six times so that all 96 wells of the assay plate were deposited with a cell suspension spot. The plate was then sealed to minimize evaporation of the cell suspension spots and transferred to a 37° C., 5% CO2 incubator to allow for cells to attach to the culture surface. After 1 hour, the plate was gently washed with medium once to remove unattached cells, refreshed with 100 μl of assay medium (DMEM supplemented with 10% FBS and 1× pen-strep), and then further incubated to allow for cell-cell contacts to establish in the cell colonies.
(§2) Four tiled, non-overlapping images were acquired around the center of each well, and were then stitched together during image analysis to generate a montage covering an area of 3.2 mm×3.2 mm. These images (T1) represent the initial state of the cell colonies before EMT induction.
(§3) After the T1 images were acquired, 1 μl of test compounds were transferred from compound stock plates and added to the assay plates. Appropriate negative controls (1 μl DMSO) and positive controls (1 μl 1.0 mM compound in DMSO) were also added into columns 1 and 12 of each assay plate, respectively. […] The cultures were then further incubated overnight.
(§4) The next day, 50 μl of growth factor-containing medium was added to each well of the assay-plates. For each of the growth factor-induced EMT spot migration assays, the final growth factor concentrations in each well is optimized to be 20 ng/ml EGF (Sigma), 4 ng/ml HGF (Calbiochem) or 150 ng/ml IGF-1 (R&D Systems), respectively. The cultures were then incubated for another 24 hours, to allow for EMT and sufficient cell motility/dispersion to occur in the cell colonies.
(§5) Finally, the cell colonies were imaged again using the microplate imager, as described above. These images (T2) represent the final state of the cell colonies after compound treatment and EMT induction. The acquired T1 and T2 image sets for each assay plate were then sent for image analysis.
(§6) The acquisition of each well was obtained by four adjacent field images with no interstice in between. Each field image was loaded and nuclei were initially segmented independently of other fields to prevent artifact at the field border. Nuclei segmentation was achieved by combining a wavelet transform which is robust to noise and unhomogeneous background, and a watershed algorithm based on intensities to split nuclei clusters. Mask of nuclei segmentation of the different fields were then stitched together in order to obtain a large segmentation of the whole well. Cell bodies were estimated by applying a morphological dilation on the nucleus segmentation using a disk of 30 pixels (48 μm) in diameter. In cells that are contiguous, such as in a cell colony, nuclei segmentation dilation will result in the formation of continuous region areas with surrounding cells which can then be identified as colonies.
(§7) Total cell number and spreading coefficient values for each well were then exported into an Excel sheet.

[2] = tested on: HGF-induced EMT in NBT-II cells; assay: EMT spot migration assay, HGF-induced; settings: for IC50: HGF-induced EMT (4 ng/ml HGF), CDR dose response from 6.67 μM, read-out: Cell Dispersion IC 50, HGF
Method: as §1, §2, §3, §4, §5, §6, §7

[3] = tested on: EGF-induced EMT in NBT-II cells; assay: EMT spot migration assay, EGF-induced; settings: for IC50: read-out: Cell Dispersion IC 50, EGF; for Cell dispersion pattern at T2 (FIG. 1D): 6.67 μM compound and EGF
Method: as §1, §2, §3, §4, §5, §6, §7

E-cadherin = assay: Western blot of EMT marker E-cadherin in growth factor-treated NBT-II cells; settings: NBT-II cells, 0.5, 2 and 8 μM compound overnight, then EGF, HGF or IGF-1 for 24 h (FIG. 7)
Method: NBT-II cells were treated with compounds at 0.5, 2 and 8 μM overnight and incubated with a growth factor for 24 h. Cells were lysed with protease/phosphatase inhibitor-containing RIPA buffer. Proteins are separated in 8% polyacrylamide gels and transferred to PDVF membranes. Membranes were blocked in 5% BSA and incubated at 4° C. overnight with MMP-13 (Millipore), E-cadherin (BD) and α-tubulin (Sigma) primary antibodies. Membranes were then developed with HRP-conjugated secondary antibody (Amersham) and ECL substrate (Millipore).
The possibilities that ALK5, MEK, PI3K and SRC targeting compounds could modulate the expression of EMT markers, such as E-cadherin and matrix metalloproteinase-13 (MMP-13) under EMT-activated conditions were also investigated (FIG. 7). With the exception of P13K inhibitor GDC-0941, the compounds in general abrogated MMP-13 expression in growth factor-treated samples, PI3K inhibition has been previously shown to augment MMP-13 expression. […] These findings are consistent with previous reports showing that ALK5, MEK and SRC play a role in cell motility and tumor progression, while PI3K predominately regulates cell proliferation.

MMP-13 = assay: Western blot of EMT marker MMP-13 in growth factor-treated NBT-II cells; settings: NBT-II cells, 0.5, 2 and 8 μM compound overnight, then growth factor for 24 h (FIG. 7)
[4] = EGF-induced EMT (20 ng/ml EGF), NBT-II cells, CDR dose response from 6.67 μM

**Q.** `COc1cc2ncnc(Nc3cccc(Cl)c3)c2cc1OC` [AG1478] was tested. Which IC50 [1] did it give?
**A.** Its IC50 is greater than 5000 nM.

**Q.** And the IC50 [2]?
**A.** Its IC50 is greater than 5000 nM.

**Q.** What about the IC50 [3, 4] of the same molecule?
**A.** The IC50 was 330 nM.

**Q.** With `Cc1ccc(-c2nn(C(C)(C)C)c3ncnc(N)c23)cc1` [PP1] as the molecule, how does the IC50 [1] read?
**A.** The IC50 was 1200 nM.

**Q.** And the IC50 [2]?
**A.** Its IC50 is 2000 nM.

**Q.** What about the “Cell dispersion pattern at T2 (FIG. 1D)” value ([3]; NBT-II cells) of the same molecule?
**A.** Its value is “pattern of inhibition”.

**Q.** And the IC50 [3, 4]?
**A.** Its IC50 is 2300 nM.

**Q.** `Cn1cnc2c(F)c(Nc3ccc(Br)cc3Cl)c(C(=O)NOCCO)cc21` [AZD6244] was tested. Which IC50 [1] did it give?
**A.** Its IC50 is 880 nM.

**Q.** What about the IC50 [2] of the same molecule?
**A.** The IC50 was 790 nM.

**Q.** What about the IC50 [3, 4] of the same molecule?
**A.** The IC50 was 840 nM.

**Q.** `CNc1cc2c(Nc3cccc(Br)c3)ncnc2cn1` [PD158780] was tested. Which IC50 [1] did it give?
**A.** Its IC50 is greater than 5000 nM.

**Q.** And the IC50 [2]?
**A.** Its IC50 is greater than 5000 nM.

**Q.** And the IC50 [3, 4]?
**A.** The IC50 was 1200 nM.

**Q.** How did the IC50 [1] turn out when `C#Cc1cccc(Nc2ncnc3cc(OCCOC)c(OCCOC)cc23)c1` [Erlotinib] was run?
**A.** Its IC50 is greater than 5000 nM.

**Q.** What about the IC50 [2] of the same molecule?
**A.** Its IC50 is greater than 5000 nM.

**Q.** What about the IC50 [3] of the same molecule?
**A.** The IC50 was 950 nM.

**Q.** Which results are given for `O=C(NOCC1CC1)c1ccc(F)c(F)c1Nc1ccc(I)cc1Cl` [CI-1040]?
**A.** IC50 [1]: 1200 nM; IC50 [2]: 820 nM; IC50 [3, 4]: 1000 nM

**Q.** Which results are given for `COc1cc2ncnc(Nc3cccc(Br)c3)c2cc1OC` [PD153035]?
**A.** IC50 [1]: > 5000 nM; IC50 [2]: > 5000 nM; Cell dispersion pattern at T2 (FIG. 1D) ([3]; NBT-II cells): pattern of inhibition; IC50 [3, 4]: 550 nM

**Q.** `COc1cc2ncnc(Nc3ccc(O)c(Br)c3)c2cc1OC` [WHI-P154] was tested. Which IC50 [1] did it give?
**A.** The IC50 was greater than 5000 nM.

**Q.** And the IC50 [2]?
**A.** The IC50 was greater than 5000 nM.

**Q.** What about the IC50 [3, 4] of the same molecule?
**A.** The IC50 was 800 nM.

**Q.** Which results are given for `Oc1cccc(-c2nc(N3CCOCC3)c3oc4ncccc4c3n2)c1` [PI-103]?
**A.** IC50 [1]: 400 nM; IC50 [2]: 380 nM; IC50 [3, 4]: 680 nM

**Q.** Which results are given for `Cc1cccc(-c2nn(C(=S)Nc3ccccc3)cc2-c2ccnc3ccccc23)n1` [A83-01]?
**A.** IC50 [1]: 120 nM; IC50 [2]: 130 nM; IC50 [3, 4]: 69 nM; E-cadherin expression (E-cadherin): restored the E-cadherin protein levels

**Q.** `O=C(NOC[C@H](O)CO)c1ccc(F)c(F)c1Nc1ccc(I)cc1F` [PD0325901] was tested. Which IC50 [1] did it give?
**A.** The IC50 was 8.9 nM.

**Q.** What about the IC50 [2] of the same molecule?
**A.** The IC50 was 20 nM.

**Q.** What about the IC50 [3, 4] of the same molecule?
**A.** The IC50 was 31 nM.

**Q.** What about the E-cadherin expression (E-cadherin) of the same molecule?
**A.** The E-cadherin expression was “augment E-cadherin expression”.

**Q.** What does the source list for `CS(=O)(=O)CCNCc1ccc(-c2ccc3ncnc(Nc4ccc(OCc5cccc(F)c5)c(Cl)c4)c3c2)o1` [Lapatinib]?
**A.** IC50 [1]: > 5000 nM; IC50 [2]: > 5000 nM; IC50 [3, 4]: 620 nM

**Q.** What does the source list for `CS(=O)(=O)N1CCN(Cc2cc3nc(-c4cccc5[nH]ncc45)nc(N4CCOCC4)c3s2)CC1` [GDC-0941]?
**A.** IC50 [1]: 500 nM; IC50 [2]: 380 nM; MMP-13 expression (MMP-13): exception; IC50 [3, 4]: 740 nM; E-cadherin expression (E-cadherin): restored the E-cadherin protein levels

**Q.** With `Cn1cc(-c2ccc3nnc(C(F)(F)c4ccc5ncccc5c4)n3n2)cn1` [JNJ-38877605] as the molecule, how does the IC50 [1] read?
**A.** The IC50 was greater than 5000 nM.

**Q.** What about the IC50 [2] of the same molecule?
**A.** The IC50 was 94 nM.

**Q.** And the IC50 [3, 4]?
**A.** Its IC50 is greater than 5000 nM.

**Q.** What does the source list for `COc1ccc2c(c1OC)N=C(NC(=O)c1cccnc1)N1CCN=C21` [PIK-90]?
**A.** IC50 [1]: 620 nM; IC50 [2]: 400 nM; IC50 [3, 4]: 950 nM

**Q.** Which results are given for `c1ccc(-c2[nH]ncc2-c2ccnc3ccccc23)nc1` [LY-364947]?
**A.** IC50 [1]: 240 nM; IC50 [2]: 180 nM; IC50 [3, 4]: 140 nM

**Q.** Which results are given for `FC(F)c1nc2ccccc2n1-c1nc(N2CCOCC2)nc(N2CCOCC2)n1` [ZSTK474]?
**A.** IC50 [1]: 660 nM; IC50 [2]: 410 nM; IC50 [3, 4]: 850 nM

**Q.** Which IC50 [1] does the source give for `NC(=O)c1ccc(-c2nc(-c3ccc4c(c3)OCCO4)c(-c3ccccn3)[nH]2)cc1` [D4476] here?
**A.** The IC50 was 1900 nM.

**Q.** What about the IC50 [2] of the same molecule?
**A.** The IC50 was 1400 nM.

**Q.** And the IC50 [3, 4]?
**A.** The IC50 was 1100 nM.

**Q.** `Fc1ccc(Cl)cc1-c1nc(Nc2ccncc2)c2nccnc2n1` [SD-208] was tested. Which IC50 [1] did it give?
**A.** Its IC50 is 150 nM.

**Q.** And the IC50 [2]?
**A.** The IC50 was 110 nM.

**Q.** What about the IC50 [3, 4] of the same molecule?
**A.** The IC50 was 85 nM.

**Q.** `NC(=O)c1ccc(-c2nc(-c3ccc4c(c3)OCO4)c(-c3ccccn3)[nH]2)cc1` [SB-431542] was tested. Which IC50 [1] did it give?
**A.** Its IC50 is 820 nM.

**Q.** And the IC50 [2]?
**A.** Its IC50 is 940 nM.

**Q.** What about the IC50 [3, 4] of the same molecule?
**A.** The IC50 was 1600 nM.

**Q.** Which results are given for `Cc1cc(N2CCOCC2)cc2[nH]c(-c3c(NC[C@@H](O)c4cccc(Cl)c4)cc[nH]c3=O)nc12` [BMS-536924]?
**A.** IC50 [1]: 170 nM; IC50 [2]: 2300 nM; IC50 [3, 4]: > 5000 nM

**Q.** Which results are given for `OCCn1cc(-c2cnc3nnn(Cc4ccc5ncccc5c4)c3n2)cn1` [PF-04217903]?
**A.** IC50 [1]: > 5000 nM; IC50 [2]: 55 nM; Inhibition of HGF-induced EMT (growth factor specificity) ([2]; spot migration assay): specifically inhibited HGF-induced EMT; IC50 [3, 4]: > 5000 nM
